Laboratory results: PMC11078990, “Identification and characterization of small molecule inhibitors of the LINE-1 retrotransposon endonuclease” (Nature Communications, 2024)
Where “and” joins values, the source holds several entries; their conditions need not be identical. Equal entries are not always repeated. Where two headings read alike, the source gives them in different places.

What was measured:
[1] = test system: DNA fragmentation (comet tail length) in HeLa Tet-On cells expressing EN domain; test: Neutral comet assay, EN domain-only constructs; assay type: cell-based, human
[2] = target: T1, APE1 (Homo sapiens, UniProt P27695); test: APE1 fluorescent oligonucleotide activity assay (abasic site substrate); assay type: biochemical; details: for activity at 25 µM: read-out: APE1 activity (%)
T1 construct: purchased New England Biolabs (NEB) M0282S

[3] = target: L1 EN (LINE-1 retrotransposon endonuclease domain) (Homo sapiens, UniProt O00370, N5T); test: Fluorescent oligonucleotide EN nicking activity assay; assay type: biochemical
L1 EN (LINE-1 retrotransposon endonuclease domain), sequence (O00370 1-239 N5T): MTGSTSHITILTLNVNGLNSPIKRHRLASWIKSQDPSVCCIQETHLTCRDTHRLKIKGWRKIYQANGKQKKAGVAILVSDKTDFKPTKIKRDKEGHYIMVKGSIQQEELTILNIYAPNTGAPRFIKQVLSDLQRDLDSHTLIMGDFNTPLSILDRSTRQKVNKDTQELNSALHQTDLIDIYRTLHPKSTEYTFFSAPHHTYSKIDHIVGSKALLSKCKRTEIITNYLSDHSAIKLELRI

[4] = test system: L1 retrotransposition; test: HeLa dual-luciferase L1 retrotransposition assay; assay type: cell-based, human
[5] = test system: HeLa Tet-On cells; details: human
[6] = test system: substrate oligonucleotide used in the EN activity assay; assay type: binding; design: key to Binding Detected? (Y/N): Binding Detected? (Y/N); Binding Detected? (Y/N)
[7] = read-out: EN activity, percent of no inhibitor control

Q: What does the source list for `O=C(CCCCCCCCCCC(=O)Nc1cccc([N+](=O)[O-])c1)Nc1cccc([N+](=O)[O-])c1` [AD11]?
A: Nuclei comet tail length, average (WT = 1) [1]: 0.8117; APE1 percent activity, Replicate 1 [2]: 77.2032%; APE1 percent activity, Replicate 2 [2]: 89.204%; APE1 percent activity, Replicate 3 [2]: 71.7475%; APE1 percent activity, average [2]: 79.3849%; activity at 25 µM [2]: 79.4 ± 8.9%; EN activity, percent of no inhibitor control ([3]; 0.1 µM): 84.764% and 74.2098%; EN activity, percent of no inhibitor control ([3]; 0.5 µM): 87.7394% and 79.0744%; EN activity, percent of no inhibitor control ([3]; 1 µM): 78.4622% and 83.3471%; EN activity, percent of no inhibitor control ([3]; 5 µM): 48.2874% and 49.6964%; EN activity, percent of no inhibitor control ([3]; 25 µM): 8.361% and 7.932%; EN activity, percent of no inhibitor control ([3]; 50 µM): 2.144% and 3.212%; EN activity, percent of no inhibitor control ([3]; 100 µM): 0.8407% and 0.78% and 1.633%; remaining activity at 0.1 µM [3, 7]: 87.2%; remaining activity at 0.5 µM [3, 7]: 73.3%; remaining activity at 1 µM [3, 7]: 78.1%; remaining activity at 5 µM [3, 7]: 54.9%; remaining activity at 25 µM [3, 7]: 6.58%; remaining activity at 50 µM [3, 7]: 2.44%; remaining activity at […] [3, 7]: 65.8%; L1 retrotransposition, average [4]: 2.364 and 2.4307 and 2.013 and 1.968 and 2.0024 and 1.896 and 1.695 and 1.484; Luciferase (retrotransposition), average [4]: 3.993; Luciferase (retrotransposition), replicates [4]: 4.575 and 4.225 and 3.621 and 3.549; PrestoBlue (viability), average [5]: 15.84; Binding Detected? (Y/N) [6]: N

Q: How did the “APE1 percent activity, Replicate 1” value [2] turn out when `O=C1c2ccc(Oc3ccc4c(c3)C(=O)N(Nc3ccc([N+](=O)[O-])cc3[N+](=O)[O-])C4=O)cc2C(=O)N1Nc1ccc([N+](=O)[O-])cc1[N+](=O)[O-]` [AD13] was run?
A: 97.407%

Q: What about the “APE1 percent activity, Replicate 2” value [2] of the same compound?
A: 88.0071%

Q: What about the “APE1 percent activity, Replicate 3” value [2] of the same compound?
A: 67.6438%

Q: And the “APE1 percent activity, average” value [2]?
A: 84.3526%

Q: And the activity at 25 µM [2]?
A: 84.4 ± 15.2%

Q: And the “EN activity, percent of no inhibitor control” value ([3]; 0.5 µM)?
A: 119.788% and 111.52%

Q: And the “EN activity, percent of no inhibitor control” value ([3]; 10 µM)?
A: 92.6481% and 80.1764%

Q: What about the “EN activity, percent of no inhibitor control” value ([3]; 25 µM) of the same compound?
A: 33.9668% and 41.2844%

Q: What about the “EN activity, percent of no inhibitor control” value ([3]; 50 µM) of the same compound?
A: 7.541% and 8.862% and 3.766%

Q: What about the “EN activity, percent of no inhibitor control” value ([3]; 100 µM) of the same compound?
A: 1.558% and 1.832%

Q: And the “EN activity, percent of no inhibitor control” value ([3]; 250 µM)?
A: 1.124% and 2.509% and 2.58%

Q: And the “EN activity, percent of no inhibitor control” value ([3]; 500 µM)?
A: 0.9149% and 2.171% and 1.168%

Q: And the “EN activity, percent of no inhibitor control” value ([3]; 1000 µM)?
A: 5.545% and 2.613% and 9.084%

Q: And the remaining activity at 0.5 µM [3, 7]?
A: 114%

Q: What about the remaining activity at 10 µM [3, 7] of the same compound?
A: 97.9%

Q: What about the remaining activity at 25 µM [3, 7] of the same compound?
A: 25.1%

Q: What about the remaining activity at 100 µM [3, 7] of the same compound?
A: 0.968%

Q: And the remaining activity at […] [3, 7]?
A: 89.7%

Q: What about the “Luciferase (retrotransposition), average” value [4] of the same compound?
A: 4.925

Q: And the “Luciferase (retrotransposition), replicates” value [4]?
A: 6.1144 and 4.934 and 4.878 and 3.774

Q: What about the “PrestoBlue (viability), average” value [5] of the same compound?
A: 12.09

Q: What about the “Binding Detected? (Y/N)” value [6] of the same compound?
A: N

Q: What does the source list for `O=C(Cn1nc(-c2ccc(Br)cc2)ccc1=O)NC[C@H]1CC[C@H](C(=O)O)CC1` [AD43]?
A: Percent APE1 activity, average ([2]; 250 µM, Supplementary Fig. 6b, n=3): 116.3%; Percent APE1 activity, replicates ([2]; 250 µM, Supplementary Fig. 6b, replicates 1-3): 119.605% and 105.469% and 123.903%; APE1 percent activity, Replicate 1 ([2]; compound at 25 μM, Replicate 1): 116.306%; APE1 percent activity, Replicate 2 ([2]; compound at 25 μM, Replicate 2): 108.363%; APE1 percent activity, Replicate 3 ([2]; compound at 25 μM, Replicate 3): 123.152%; APE1 percent activity, average ([2]; compound at 25 μM, average of 3 replicates): 115.94%; activity at 25 µM ([2]; inhibitors at 25 μM, relative to 0 μM inhibitor control, mean ± s.d., 3 independent experiments): 116 ± 7.4%; EN activity, percent of no inhibitor control ([3]; [Inhibitor] 5 μM, technical replicates 1-3, Fig. 2b source data, 5 µM): 82.7533% and 93.1928% and 121.814%; EN activity, percent of no inhibitor control ([3]; [Inhibitor] 25 μM, technical replicates 1-3, Fig. 2b source data, 25 µM): 125.36% and 146.969% and 130.066%; EN activity, percent of no inhibitor control ([3]; [Inhibitor] 50 μM, technical replicates 1-3, Fig. 2b source data, 50 µM): 105.857% and 111.128%; remaining activity at 50 µM ([3]; [Inhibitor] 50 μM, technical replicates 1-3, Fig. 2b source data, read-out: EN activity, percent of no inhibitor control): 117%; EN activity, percent of no inhibitor control ([3]; [Inhibitor] 100 μM, technical replicates 1-3, Fig. 2b source data, 100 µM): 119.496% and 103.054%; remaining activity at 100 µM ([3]; [Inhibitor] 100 μM, technical replicates 1-3, Fig. 2b source data, read-out: EN activity, percent of no inhibitor control): 106%; EN activity, percent of no inhibitor control ([3]; [Inhibitor] 250 μM, technical replicates 1-3, Fig. 2b source data, 250 µM): 70.4269% and 99.2352% and 82.7621%; EN activity, percent of no inhibitor control ([3]; [Inhibitor] 500 μM, technical replicates 1-3, Fig. 2b source data, 500 µM): 75.3754% and 92.6354%; remaining activity at 500 µM ([3]; [Inhibitor] 500 μM, technical replicates 1-3, Fig. 2b source data, read-out: EN activity, percent of no inhibitor control): 82.7%; EN activity, percent of no inhibitor control ([3]; [Inhibitor] 1000 μM, technical replicates 1-3, Fig. 2b source data, 1000 µM): 36.4624% and 21.4688%; remaining activity at 1000 µM ([3]; [Inhibitor] 1000 μM, technical replicates 1-3, Fig. 2b source data, read-out: EN activity, percent of no inhibitor control): 31.2%; EN activity, percent of no inhibitor control ([3]; [Inhibitor] 2500 μM, technical replicates 1-3, Fig. 2b source data, 2500 µM): -1.238% and -2.463% and -2.08%; Luciferase (retrotransposition), average ([4]; Figure 4a Graph 5, 50μM, 0μM average 4.537): 2.141; Luciferase (retrotransposition), replicates ([4]; Figure 4a Graph 5, 50μM, Replicates 1-4, 0μM average 4.537): 2.066 and 2.337 and 2.1059 and 2.055; Effect on L1 retrotransposition ([4]; HeLa cells): some activity in the retrotransposition assay; PrestoBlue (viability), average ([5]; 48 h, 50 μM): 6.621; Binding Detected? (Y/N) [6]: N
